Data reported in publication PMC6522510 (Nature Communications, 2019).
Where two headings read alike, the source gives them in different places.

Legend:
[1] = tested on: ML2; assay: Secondary dose-response HTS, Cell Titer Glo; format: cell-based, human; details: secondary high-throughput screen, ML-2; for EC50: read-out: average effective concentration, ML-2
[2] = tested on: CHRF288-11; assay: Secondary dose-response HTS, Cell Titer Glo; format: cell-based, human; details: secondary high-throughput screen, CHRF288-11; for EC50: read-out: average effective concentration, CHRF288-11
[3] = tested on: M07e; assay: Secondary dose-response HTS, Cell Titer Glo; format: cell-based, human; details: secondary high-throughput screen; for EC50: Homo sapiens, M-07e, read-out: average effective concentration, M07e
[4] = tested on: CMK; assay: Secondary dose-response HTS, Cell Titer Glo; format: cell-based, human; details: CMK; for EC50: read-out: average effective concentration, CMK
[5] = tested on: MV4-11; assay: Secondary dose-response HTS, Cell Titer Glo; format: cell-based, human; details: secondary high-throughput screen, MV4-11; for EC50: Homo sapiens, read-out: average effective concentration, MV4-11
[6] = tested on: U937; assay: Secondary dose-response HTS, Cell Titer Glo; format: cell-based, human; details: secondary high-throughput screen, U937; for EC50: read-out: average effective concentration, U937
[7] = tested on: CMS; assay: Secondary dose-response HTS, Cell Titer Glo; format: cell-based, human; details: for EC50: read-out: average effective concentration, CMS
[8] = tested on: MOLM-13; assay: Secondary dose-response HTS, Cell Titer Glo; format: cell-based, human; details: secondary high-throughput screen, MOLM-13; for EC50: Homo sapiens, read-out: average effective concentration, MOLM-13
[9] = tested on: MV4-11; assay: cells; parameters: species or system AML cell lines (8); Secondary HTS, 10-point dose-response in triplicate, Cell Titer Glo viability, four-parameter fit EC50; details: Homo sapiens, MV4-11, 72 h, read-out: MV4-11
[10] = secondary high-throughput screen
[11] = secondary high-throughput screen, CMS
[12] = Homo sapiens, HTS, secondary high-throughput screen, CMS
[13] = Homo sapiens, secondary high-throughput screen

SMILES | average effective concentration, CHRF288-11 [2] | average effective concentration, M07e ([3]; M07e) | average effective concentration, CMK [4, 10] | average effective concentration, MV4-11 [5] | average effective concentration, U937 [6] | average effective concentration, CMS [7, 11] | average effective concentration, MOLM-13 [8] | average effective concentration, ML-2 [1] | EC50 ([1]; Homo sapiens) [µM] | EC50 ([2]; Homo sapiens, HTS) [µM] | EC50 ([3]; M07e) [µM] | EC50 ([6]; Homo sapiens, U-937) [µM] | EC50 [8] [µM] | further results
C[n+]1c2cc(N)ccc2cc2ccc(N)cc21 | Inactive | Inactive | Inactive | Inactive | Inactive | Inactive | Inactive |  |  |  |  |  |  | EC50 [1]: 7.7 µM
NC(=O)C1CCCc2c1[nH]c1ccc(Cl)cc21 (stereo not drawn) | Inactive | Inactive | Inactive | Inactive | Inactive | Inactive | Inactive | Inactive |  |  |  |  |  | 
N[C@@H]1C[C@H]1c1ccccc1 (racemic) [TRANYLCYPROMINE] | Inactive | Inactive |  | Inactive | Inactive | Inactive | Inactive | Inactive |  |  |  |  |  | 
CC1CCCCCC(=O)c2c(O)cc(O)cc2CC(=O)O1 (single isomer, unassigned; (-)) [(-)-CURVULARIN] |  |  |  | Inactive |  |  | Inactive |  |  |  |  |  |  | EC50 [2]: 4.7 µM; average effective concentration, M07e ([3]; […]): Inactive; EC50 [4, 10]: 1.5 µM; EC50 [6]: 0.82 µM; EC50 [7, 11]: 0.32 µM
[NH4+].[NH4+].[SH-].[SH-].[S]=[Mo]=[S] [AMMONIUM TETRATHIOMOLYBDATE] | Inactive | Inactive |  | Inactive | Inactive | Inactive | Inactive | Inactive |  |  |  |  |  | 
O=[As]O[As]=O (stereo not drawn) [ARSENIC TRIOXIDE] | Inactive |  |  | Inactive | Inactive | Inactive | Inactive | Inactive |  |  |  |  |  | average effective concentration, M07e ([3]; […]): Inactive
N[C@@H]1CCCN(c2c(/C=C3\SC(=O)NC3=O)cccc2-c2ccccc2)C1 [AZD1208] |  | Inactive | Inactive | Inactive | Inactive | Inactive | Inactive | Inactive |  |  |  |  |  | 
COc1cc2nc(N3CCCN(C)CC3)nc(NC3CCN(Cc4ccccc4)CC3)c2cc1OC [BIX 01294] |  |  |  |  |  |  |  |  | 3.6 | 4.4 | > 10 | 2 | 2.5 | EC50 [5]: 3 µM; EC50 [7, 12]: > 10 µM
N#CCNC(=O)c1ccc(-c2ccnc(Nc3ccc(N4CCOCC4)cc3)n2)cc1 [CYT-387] |  |  |  |  |  |  |  |  | > 10 | 3.8 | 0.27 | 7.6 | 1.2 | EC50 [9]: > 10 µM; EC50 ([4]; Homo sapiens): 1.8 µM; EC50 ([7]; Homo sapiens, HTS): 0.34 µM
Nc1ncnc2c1nc(Cl)n2[C@@H]1O[C@H](CO)[C@@H](O)[C@H]1O [Compound 8-CHLOROADENOSINE] |  |  |  |  |  |  |  |  | 2.8 | 1.2 | 0.001 | 1 | 2.2 | EC50 [5]: 0.25 µM; EC50 ([7]; Homo sapiens, HTS): 4.4 µM
NC1CC1c1cc(F)cc(F)c1OCc1ccccc1 (stereo not drawn) [Compound S2101] | Inactive | Inactive |  | Inactive | Inactive | Inactive | Inactive | Inactive |  |  |  |  |  | 
OCCN1CCN(CCCN2c3ccccc3Sc3ccc(C(F)(F)F)cc32)CC1 [FLUFENAZINE] | Inactive | Inactive | Inactive | Inactive | Inactive | Inactive | Inactive |  |  |  |  |  |  | 
CSCC[C@@H](NC(=O)c1ccc(CNCc2cnc[nH]2)cc1-c1ccccc1C)C(=O)OCc1ccccc1 [FTI-2628] | Inactive | Inactive | Inactive | Inactive |  | Inactive | Inactive | Inactive |  |  |  |  |  | 
CSCC[C@H](NC(=O)c1ccc(NC(=O)[C@@H](N)CS)cc1)C(=O)O [H-CYS-4-ABZ-MET-OH] | Inactive | Inactive | Inactive | Inactive |  | Inactive | Inactive | Inactive |  |  |  |  |  | 
O=C(O)c1ccc(O)c2ncccc12 [IOX 1] | Inactive | Inactive |  | Inactive | Inactive | Inactive | Inactive | Inactive |  |  |  |  |  | 
C1=C/COCc2cc(ccc2OCCN2CCCC2)Nc2nccc(n2)-c2cccc(c2)COC/1 [PACRITINIB] |  |  |  |  |  |  |  |  | 0.13 | 2.4 | 6.7 | 0.28 | 0.31 | EC50 [9]: > 10 µM; EC50 ([4]; Homo sapiens): 5 µM; EC50 ([7]; Homo sapiens, HTS): 2 µM
CN(C)Cc1ccc(S(=O)(=O)n2ccc(/C=C/C(=O)NO)c2)cc1 [RESMINOSTAT] |  |  |  |  |  |  |  |  | 5 | 4.7 | 1.1 | 3.5 | 2 | EC50 [9]: > 10 µM; EC50 [4, 13]: 1.7 µM; EC50 [7, 12]: 3.1 µM
Nc1cc(F)ccc1NC(=O)/C=C/c1cnn(C/C=C/c2ccccc2)c1 [RGFP966] |  |  |  |  |  |  |  |  | > 10 | 7.3 |  | > 10 | > 10 | EC50 [9]: > 10 µM; EC50 ([3]; […]): 10 µM; EC50 [4, 13]: 6 µM; EC50 [7, 12]: 9.3 µM
Fc1ccc(CNc2ncnc3ccc(F)cc23)cc1 [SPAUTIN-1] | Inactive |  | Inactive | Inactive |  | Inactive | Inactive | Inactive |  |  |  |  |  | average effective concentration, M07e ([3]; […]): Inactive
CC(=O)Nc1ccc(C(=O)Nc2ccccc2N)cc1 [TACEDINALINE] |  |  |  |  |  |  |  |  | > 10 | > 10 | 4.1 | > 10 | 2.2 | EC50 [9]: > 10 µM; EC50 [4, 13]: 6.8 µM; EC50 [7, 12]: 9 µM
